Values quoted from earlier work, collected in patent US8957218B2, “2-oxo-1-imidazolidinyl imidazothiadiazole derivatives” (UCB Pharma S.A., priority 2011, dated 2015).

Test system: epilepsy (seizure control)
Details: Gower A. J. et al., Eur. J. Pharmacol. (1992), 222, 193-203

CC[C@H](C(N)=O)N1CCCC1=O [(R)-α-ethyl-2-oxo-1-pyrrolidine acetamide]
activity in the treatment of epilepsy (seizure control): completely lacks activity
